Experimental data from article PMC8900257 (ACS chemical biology, 2019).
“And” between values parts separate entries of the source, which are not always exact repeats. Equal entries are not always repeated.

tested on: M. tuberculosis H37Rv fructose-bisphosphate aldolase (FBA); test: not given; conditions: ref PubChem Bioassay AID 588726; cited from earlier work

Question: Which “Enzyme inhibition (%) at 1 μM MtFBA” value does the source give for `CCn1cc(C(=O)NC(C)C)c(=O)c2cc(F)c(N3CCN(C(=O)c4ccco4)CC3)cc21` [N1–1] here?
Answer: 54.81%

Question: For `CCC(C)NC(=O)c1cn(CC)c2cc(N3CCN(C(=O)c4ccco4)CC3)c(F)cc2c1=O` (stereo not drawn) [N1–2], which “Enzyme inhibition (%) at 1 μM MtFBA” value is on record?
Answer: 54.28%

Question: Which “Enzyme inhibition (%) at 1 μM MtFBA” value does the source give for `CCCNC(=O)c1cn(CC)c2cc(N3CCN(C(=O)c4ccco4)CC3)c(F)cc2c1=O` [N1–3] here?
Answer: 79.9%

Question: With `C=CCNC(=O)c1cn(CC)c2cc(N3CCN(C(=O)c4ccco4)CC3)c(F)cc2c1=O` [N1–4] as the compound, how does the “Enzyme inhibition (%) at 1 μM MtFBA” value read?
Answer: 97.0%

Question: For `CCCCNC(=O)c1cn(CC)c2cc(N3CCN(C(=O)c4ccco4)CC3)c(F)cc2c1=O` [N1–5], which “Enzyme inhibition (%) at 1 μM MtFBA” value is on record?
Answer: 22.14%

Question: Which “Enzyme inhibition (%) at 1 μM MtFBA” value does the source give for `CCn1cc(C(=O)NCC(C)C)c(=O)c2cc(F)c(N3CCN(C(=O)c4ccco4)CC3)cc21` [N1–6] here?
Answer: 11.37%

Question: Which “Enzyme inhibition (%) at 1 μM MtFBA” value does the source give for `CCn1cc(C(=O)NCCC(C)C)c(=O)c2cc(F)c(N3CCN(C(=O)c4ccco4)CC3)cc21` [N1–7] here?
Answer: 14.68%

Question: For `CCn1cc(C(=O)NCc2ccccc2)c(=O)c2cc(F)c(N3CCN(C(=O)c4ccco4)CC3)cc21` [N1–10], which “Enzyme inhibition (%) at 1 μM MtFBA” value is on record?
Answer: 20% and 20.43%

Question: With `CCn1cc(C(=O)NCc2cccc(F)c2)c(=O)c2cc(F)c(N3CCN(C(=O)c4ccco4)CC3)cc21` [N1–13] as the compound, how does the “Enzyme inhibition (%) at 1 μM MtFBA” value read?
Answer: 40% and 38.2%

Question: With `CCn1cc(C(=O)NCc2ccncc2)c(=O)c2cc(F)c(N3CCN(C(=O)c4ccco4)CC3)cc21` [N1–16] as the compound, how does the “Enzyme inhibition (%) at 1 μM MtFBA” value read?
Answer: 41.76%

Question: Which “Enzyme inhibition (%) at 1 μM MtFBA” value does the source give for `CCn1cc(C(=O)Nc2ncccc2O)c(=O)c2cc(F)c(N3CCN(C(=O)c4ccco4)CC3)cc21` [N1–20] here?
Answer: 14.6%

Question: With `CCn1cc(C(=O)NCc2ccco2)c(=O)c2cc(F)c(N3CCN(C(=O)c4ccco4)CC3)cc21` [N1–29] as the compound, how does the “Enzyme inhibition (%) at 1 μM MtFBA” value read?
Answer: 19.8%

Question: With `CCN(CC)CCNC(=O)c1cn(CC)c2cc(N3CCN(C(=O)c4ccco4)CC3)c(F)cc2c1=O` [N1–30] as the compound, how does the “Enzyme inhibition (%) at 1 μM MtFBA” value read?
Answer: 22.17%

Question: With `CCN(CC)CCCNC(=O)c1cn(CC)c2cc(N3CCN(C(=O)c4ccco4)CC3)c(F)cc2c1=O` [N1–31] as the compound, how does the “Enzyme inhibition (%) at 1 μM MtFBA” value read?
Answer: 54.21%

tested on: non-replicating M. smegmatis; test: Cell viability by CFU assay under carbon starvation; format: cell-based, Mycobacterium smegmatis; conditions: Mycolicibacterium smegmatis, 96 h, read-out: colony forming unit (CFU) reduction

Question: Which log reduction at 25 µM does the source give for `CC1CCC(C(C)C)C(OC(=O)Cn2c(COc3ccccc3)[n+](C)c3ccccc32)C1` (stereo not drawn) [N2–8] here?
Answer: > 2

Question: With `COc1ccc(OCc2n(CC(=O)OC3CC(C)CCC3C(C)C)c3ccccc3[n+]2C)cc1` (stereo not drawn) [N2–11] as the compound, how does the log reduction at 25 µM read?
Answer: ≤ 4

tested on: M. tuberculosis H37Rv; test: M. tuberculosis growth inhibition; format: cell-based, Mycobacterium tuberculosis; conditions: Mycobacterium tuberculosis, H37RV, read-out: Mycobacterium Growth inhibition, MIC (μM) tuberculosis, Table 2, this study

Question: For `CC1CCC(C(C)C)C(OC(=O)Cn2c[n+](CC(=O)OC3CC(C)CCC3C(C)C)c3ccccc32)C1` (stereo not drawn) [N2–1], which MIC is on record?
Answer: 46.7 µM

Question: Which MIC does the source give for `CC1CCC(C(C)C)C(OC(=O)Cn2c(COc3ccccc3)[n+](C)c3ccccc32)C1` (stereo not drawn) [N2–8] here?
Answer: 21.2 µM

Question: Which MIC does the source give for `Cc1ccccc1OCc1n(CC(=O)OC2CC(C)CCC2C(C)C)c2ccccc2[n+]1C` (stereo not drawn) [N2–9] here?
Answer: 38.5 µM

Question: For `Cc1ccc(OCc2n(CC(=O)OC3CC(C)CCC3C(C)C)c3ccccc3[n+]2C)cc1` (stereo not drawn) [N2–10], which MIC is on record?
Answer: 19.7 µM

Question: Which MIC does the source give for `COc1ccc(OCc2n(CC(=O)OC3CC(C)CCC3C(C)C)c3ccccc3[n+]2C)cc1` (stereo not drawn) [N2–11] here?
Answer: 28 µM

same assay, conditions: Table 2, this study

Question: For `COc1ccc(OCc2n(CC(=O)OC3CC(C)CCC3C(C)C)c3ccccc3[n+]2C)cc1` (stereo not drawn) [N2–11], which “Mycobacterium Growth inhibition, MIC (μM) tuberculosis” value is on record?
Answer: 28.2 µM

tested on: M. tuberculosis; test: not given; conditions: Table 1; nd = no detected effect; ref PubChem Bioassay AID 449762; cited from earlier work

Question: For `CCn1cc(C(=O)NC(C)C)c(=O)c2cc(F)c(N3CCN(C(=O)c4ccco4)CC3)cc21` [N1–1], which “Mycobacterium Growth inhibition MIC (μM) tuberculosis e” value is on record?
Answer: >25 µM

Question: With `CCC(C)NC(=O)c1cn(CC)c2cc(N3CCN(C(=O)c4ccco4)CC3)c(F)cc2c1=O` (stereo not drawn) [N1–2] as the compound, how does the “Mycobacterium Growth inhibition MIC (μM) tuberculosis e” value read?
Answer: 50 µM

Question: With `CCCNC(=O)c1cn(CC)c2cc(N3CCN(C(=O)c4ccco4)CC3)c(F)cc2c1=O` [N1–3] as the compound, how does the “Mycobacterium Growth inhibition MIC (μM) tuberculosis e” value read?
Answer: 25 µM

Question: With `C=CCNC(=O)c1cn(CC)c2cc(N3CCN(C(=O)c4ccco4)CC3)c(F)cc2c1=O` [N1–4] as the compound, how does the “Mycobacterium Growth inhibition MIC (μM) tuberculosis e” value read?
Answer: 25 µM

Question: Which “Mycobacterium Growth inhibition MIC (μM) tuberculosis e” value does the source give for `CCCCNC(=O)c1cn(CC)c2cc(N3CCN(C(=O)c4ccco4)CC3)c(F)cc2c1=O` [N1–5] here?
Answer: >25 µM

Question: Which “Mycobacterium Growth inhibition MIC (μM) tuberculosis e” value does the source give for `CCn1cc(C(=O)NCCC(C)C)c(=O)c2cc(F)c(N3CCN(C(=O)c4ccco4)CC3)cc21` [N1–7] here?
Answer: >25 µM

Question: Which “Mycobacterium Growth inhibition MIC (μM) tuberculosis e” value does the source give for `CCn1cc(C(=O)NCc2ccccc2)c(=O)c2cc(F)c(N3CCN(C(=O)c4ccco4)CC3)cc21` [N1–10] here?
Answer: 25 µM

Question: For `CCn1cc(C(=O)NCc2cccc(F)c2)c(=O)c2cc(F)c(N3CCN(C(=O)c4ccco4)CC3)cc21` [N1–13], which “Mycobacterium Growth inhibition MIC (μM) tuberculosis e” value is on record?
Answer: 25 µM

Question: For `CCn1cc(C(=O)NCc2ccco2)c(=O)c2cc(F)c(N3CCN(C(=O)c4ccco4)CC3)cc21` [N1–29], which “Mycobacterium Growth inhibition MIC (μM) tuberculosis e” value is on record?
Answer: <25 µM

Question: For `CCN(CC)CCCNC(=O)c1cn(CC)c2cc(N3CCN(C(=O)c4ccco4)CC3)c(F)cc2c1=O` [N1–31], which “Mycobacterium Growth inhibition MIC (μM) tuberculosis e” value is on record?
Answer: >25 µM

tested on: M. tuberculosis; test: not given; conditions: Table 1; values deduced from ref PubChem Bioassay AID 1626; cited from earlier work

Question: For `CCn1cc(C(=O)NCc2ccccc2)c(=O)c2cc(F)c(N3CCN(C(=O)c4ccco4)CC3)cc21` [N1–10], which “Mycobacterium Growth inhibition MIC (μM) tuberculosis d” value is on record?
Answer: <10 µM

Question: With `CCn1cc(C(=O)NCc2cccc(F)c2)c(=O)c2cc(F)c(N3CCN(C(=O)c4ccco4)CC3)cc21` [N1–13] as the compound, how does the “Mycobacterium Growth inhibition MIC (μM) tuberculosis d” value read?
Answer: 12.5 µM

Question: Which “Mycobacterium Growth inhibition MIC (μM) tuberculosis d” value does the source give for `CCn1cc(C(=O)NCc2ccncc2)c(=O)c2cc(F)c(N3CCN(C(=O)c4ccco4)CC3)cc21` [N1–16] here?
Answer: >100 µM

Question: Which “Mycobacterium Growth inhibition MIC (μM) tuberculosis d” value does the source give for `CCn1cc(C(=O)NCc2ccco2)c(=O)c2cc(F)c(N3CCN(C(=O)c4ccco4)CC3)cc21` [N1–29] here?
Answer: >10 µM

Question: Which “Mycobacterium Growth inhibition MIC (μM) tuberculosis d” value does the source give for `CCN(CC)CCNC(=O)c1cn(CC)c2cc(N3CCN(C(=O)c4ccco4)CC3)c(F)cc2c1=O` [N1–30] here?
Answer: >100 µM

tested on: NAD pool; test: NAD pool level in M. smegmatis, colorimetric detection kit; format: cell-based, Mycobacterium smegmatis; conditions: not given

Question: With `COc1ccc(-c2n(CC(=O)OC3CC(C)CCC3C(C)C)c3ccccc3[n+]2C)cc1` (stereo not drawn) [N2–7] as the compound, how does the NAD pool depletion read?
Answer: rapid depletion of the NAD pool

same assay, conditions: inhibitor at ~5× MIC added at log-phase, samples over 6 hours

Question: With `COc1ccc(OCc2n(CC(=O)OC3CC(C)CCC3C(C)C)c3ccccc3[n+]2C)cc1` (stereo not drawn) [N2–11] as the compound, how does the NAD pool depletion read?
Answer: rapid depletion of the NAD pool
